# Biological target: Anti-alpha galactosyl IgG antibody
# Experiment: ELISA assay: streptavidin-captured biotin compound, binding of anti-alpha galactosyl IgG antibody
# Set-up: species or system human
# Conditions: geometric mean with standard error in brackets; streptavidin plate, anti-alpha galactosyl IgG 0.5 μg/mL; read-out: Concentration at half maximal binding
# Experimental: Compounds containing F (representing a carbohydrate molecule capable of binding to a human anti-alpha-galactosyl antibody) and L (as biotin) were assayed for binding at both ends of the compound using an enzyme-linked immunosorbent assay (ELISA). Streptavidin-coated plates captured biotin to the surface of the plate and the binding of anti-alpha galactosyl antibodies to the alpha-galactosyl moiety was reported by a secondary antibody labelled with HRP (Horse Radish Peroxidase).
# Compounds were titrated 1.5 fold from a top dose of 50 nM in phosphate buffered saline (PBS) (Sigma D8537)+0.025% DMSO (Dimethyl Sulphoxide, Sigma D8418). Streptavidin immobilizer 96-well plates (nunc 436014) were coated with 100 μL of compound at room temperature for 2 hours shaking at 500 rpm. Plates were washed with 2×200 μL PBS-T (PBS with 0.05% Tween 20 (Sigma P9416)) and 1×200 μL PBS-T with a 5 minute incubation shaking at room temperature, prior to being blocked for 1 hour at room temperature with 1% Bovine Serum Albumin (BSA, Sigma A2153) in PBS-T. After removing the blocking buffer, 50 μL of Anti-alpha galactosyl IgG antibody (Anti-alpha-galactosyl antibody was purified from human IVIG (Gammagard) by affinity purification using an alpha-galactosyl-HSA (Human Serum Albumin) sepharose column by Rockland Immunochemicals Inc.) at 0.5 μg/mL in PBS-T+1% BSA and incubated shaking at room temperature for 1 hour.
# Plates were washed 2×200 μL PBS-T and 3×200 μL PBS-T with a 5 minute incubation, shaking at room temperature before the addition of 50 μL 1:5000 Goat Anti-Human IgG-HRP (horseradish peroxidase) conjugate (Abcam ab97175). The plates were incubated shaking at room temperature for 1 hour before a final wash of 2×200 μL PBS-T and 3×200 μl PBS-T with a 5 minute incubation shaking at room temperature. 100 μL TMB buffer (3,3′,5,5′-tetramethylbenzidine, a chromogenic substrate for horseradish peroxidase) (Pierce 34021) was added to the plate and allowed to develop for 5-10 minutes before the samples were quenched with 50 μL 2M sulfuric acid (Sigma 258105). The absorbance was read at 450 nm on an Envision plate reader (Perkin Elmer). Results from wells (duplicate) were averaged and the 50% binding affinity calculated.
# The concentration at which half-maximal binding is achieved is reported as a geometric mean with standard error in brackets. The number of independent experiments is also reported. In order to achieve a signal both ends of the molecule are required to bind (biotin to streptavidin and alpha-galactosyl to anti-alpha galactosyl antibodies) simultaneously.
row,EC50 [µM],Structure (SMILES)
1,0.0163,CC(=O)NC1C(OCCCNC(=O)CCOCCOCCOCCOCCOCCOCCOCCOCCOCCOCCOCCOCCNC(=O)COc2cc(OCC(=O)NCCOCCOCCOCCOCCOCCOCCOCCOCCOCCOCCOCCOCCC(=O)NCCCOC3OC(CO)C(OC4OC(CO)C(O)C(OC5OC(CO)C(O)C(O)C5O)C4O)C(O)C3NC(C)=O)cc(-c3cc(OCC(=O)NCCOCCOCCOCCOCCOCCOCCOCCOCCOCCOCCOCCOCCC(=O)NCCCOC4OC(CO)C(OC5OC(CO)C(O)C(OC6OC(CO)C(O)C(O)C6O)C5O)C(O)C4NC(C)=O)cc(C(=O)NCCNC(=O)CCCCC4SCC5NC(=O)NC54)c3)c2)OC(CO)C(OC2OC(CO)C(O)C(OC3OC(CO)C(O)C(O)C3O)C2O)C1O (centres unmarked) [Example 56]
2,0.0118,CC(=O)NC1C(OCCCNC(=O)CCOCCOCCOCCOCCNC(=O)COc2cccc(C(=O)NCCNC(=O)CCOCCOCCOCCOCCOCCOCCOCCOCCOCCOCCOCCOCCNC(=O)CCCCC3SCC4NC(=O)NC43)c2)OC(CO)C(OC2OC(CO)C(O)C(OC3OC(CO)C(O)C(O)C3O)C2O)C1O (centres unmarked) [Example 19]
3,0.0261,CC(=O)N[C@H]1[C@H](OCCCNC(=O)CCOCCOCCOCCOCCOCCOCCOCCOCCOCCOCCOCCOCCNC(=O)COc2cccc(C(=O)NCCNC(=O)CCOCCOCCOCCOCCOCCOCCOCCOCCOCCOCCOCCOCCNC(=O)CCCC[C@@H]3SC[C@@H]4NC(=O)N[C@@H]43)c2)O[C@H](CO)[C@@H](O[C@@H]2O[C@H](CO)[C@H](O)[C@H](O[C@H]3O[C@H](CO)[C@H](O)[C@H](O)[C@H]3O)[C@H]2O)[C@@H]1O [Example 50]
4,0.0058,"CC(=O)NC1C(OCCCNC(=O)COc2cc(OCC(=O)NCCCOC3OC(CO)C(OC4OC(CO)C(O)C(OC5OC(CO)C(O)C(O)C5O)C4O)C(O)C3NC(C)=O)cc(C(=O)NCCNC(=O)CCOCCOCCOCCOCCOCCOCCOCCOCCOCCOCCOCCOCCNC(=O)CCCCC3SCC4NC(=O)NC43)c2)OC(CO)C(OC2OC(CO)C(O)C(OC3OC(CO)C(O)C(O)C3O)C2O)C1O [Example 6, 1-{5-[(3aS,4S,6aR)-2-Oxo-hexahydro-1H-thieno[3,4-d]imidazolidin-4-yl]pentanamido}-N-(2-{[3,5-bis({[(3-{[(2R,5S)-5-{[(2S,5S)-3,5-dihydroxy-6-(hydroxymethyl)-4-{[(2R,5R)-3,4,5-trihydroxy-6-(hydroxymethyl)oxan-2-yl]oxy}oxan-2-yl]oxy}-3-acetamido-4-hydroxy-6-(hydroxymethyl)oxan-2-yl]oxy}propyl)carbamoyl]methoxy})phenyl]formamido}ethyl)-3,6,9,12,15,18,21,24,27,30,33,36-dodecaoxanonatriacontan-39-amide]"
5,0.0376,CC(=O)NC1C(OCCCNC(=O)CCOCCOCCOCCOCCNC(=O)COc2cc(OCC(=O)NCCOCCOCCOCCOCCC(=O)NCCCOC3OC(CO)C(OC4OC(CO)C(O)C(OC5OC(CO)C(O)C(O)C5O)C4O)C(O)C3NC(C)=O)cc(-c3cc(OCC(=O)NCCOCCOCCOCCOCCC(=O)NCCCOC4OC(CO)C(OC5OC(CO)C(O)C(OC6OC(CO)C(O)C(O)C6O)C5O)C(O)C4NC(C)=O)cc(C(=O)NCCOCCOCCOCCOCCC(=O)NCCNC(=O)CCCCC4SCC5NC(=O)NC54)c3)c2)OC(CO)C(OC2OC(CO)C(O)C(OC3OC(CO)C(O)C(O)C3O)C2O)C1O (centres unmarked) [Example 58]
6,0.0257,"CC(=O)N[C@H]1[C@H](OCCCNC(=O)COc2cc(C(=O)NCCNC(=O)CCCC[C@@H]3SC[C@@H]4NC(=O)N[C@@H]43)nc3ccccc23)O[C@H](CO)[C@@H](O[C@@H]2O[C@H](CO)[C@H](O)[C@H](O[C@H]3O[C@H](CO)[C@H](O)[C@H](O)[C@H]3O)[C@H]2O)[C@@H]1O [Example 10, 4-(2-((3-(((2R,3R,4R,5S,6R)-3-Acetamido-5-(((2S,3R,4S,5S,6R)-3,5-dihydroxy-6-(hydroxymethyl)-4-(((2R,3R,4S,5R,6R)-3,4,5-trihydroxy-6-(hydroxymethyl)tetrahydro-2H-pyran-2-yl)oxy)tetrahydro-2H-pyran-2-yl)oxy)-4-hydroxy-6-(hydroxymethyl)tetrahydro-2H-pyran-2-yl)oxy)propyl)amino)-2-oxoethoxy)-N-(2-(5-((3aS,4S,6aR)-2-oxohexahydro-1H-thieno[3,4-d]imidazol-4-yl)pentanamido)ethyl)quinoline-2-carboxamide]"
7,0.0154,CC(=O)NC1C(OCCCNC(=O)CCOCCOCCOCCOCCOCCOCCOCCOCCOCCOCCOCCOCCNC(=O)COc2cc(OCC(=O)NCCOCCOCCOCCOCCOCCOCCOCCOCCOCCOCCOCCOCCC(=O)NCCCOC3OC(CO)C(OC4OC(CO)C(O)C(OC5OC(CO)C(O)C(O)C5O)C4O)C(O)C3NC(C)=O)cc(-c3cc(OCC(=O)NCCOCCOCCOCCOCCOCCOCCOCCOCCOCCOCCOCCOCCC(=O)NCCCOC4OC(CO)C(OC5OC(CO)C(O)C(OC6OC(CO)C(O)C(O)C6O)C5O)C(O)C4NC(C)=O)cc(C(=O)NCCNC(=O)CCOCCOCCOCCOCCOCCOCCOCCOCCOCCOCCOCCOCCNC(=O)CCCCC4SCC5NC(=O)NC54)c3)c2)OC(CO)C(OC2OC(CO)C(O)C(OC3OC(CO)C(O)C(O)C3O)C2O)C1O (centres unmarked) [Example 57]
8,0.0373,"CC(=O)N[C@H]1[C@H](OCCCNC(=O)COc2cccc(CNC(=O)CCCCC(=O)NCCNC(=O)CCCC[C@@H]3SC[C@@H]4NC(=O)N[C@@H]43)c2)O[C@H](CO)[C@@H](O[C@@H]2O[C@H](CO)[C@H](O)[C@H](O[C@H]3O[C@H](CO)[C@H](O)[C@H](O)[C@H]3O)[C@H]2O)[C@@H]1O [Example 12, N^1-(3-(2-((3-(((2R,3R,4R,5S,6R)-3-Acetamido-5-(((2S,3R,4S,5S,6R)-3,5-dihydroxy-6-(hydroxymethyl)-4-(((2R,3R,4S,5R,6R)-3,4,5-trihydroxy-6-(hydroxymethyl)tetrahydro-2H-pyran-2-yl)oxy)tetrahydro-2H-pyran-2-yl)oxy)-4-hydroxy-6-(hydroxymethyl)tetrahydro-2H-pyran-2-yl)oxy)propyl)amino)-2-oxoethoxy)benzyl)-N6-(2-(5-((3aS,4S,6aR)-2-oxohexahydro-1H-thieno[3,4-d]imidazol-4-yl)pentanamido)ethyl)adipamide]"
9,0.0148,CC(=O)NC1C(OCCCNC(=O)CCOCCOCCOCCOCCNC(=O)COc2cc(OCC(=O)NCCOCCOCCOCCOCCC(=O)NCCCOC3OC(CO)C(OC4OC(CO)C(O)C(OC5OC(CO)C(O)C(O)C5O)C4O)C(O)C3NC(C)=O)cc(C(=O)NCCNC(=O)CCOCCOCCOCCOCCOCCOCCOCCOCCOCCOCCOCCOCCNC(=O)CCCCC3SCC4NC(=O)NC43)c2)OC(CO)C(OC2OC(CO)C(O)C(OC3OC(CO)C(O)C(O)C3O)C2O)C1O (centres unmarked) [Example 21]
10,0.0131,"CC(=O)N[C@H]1[C@H](OCCCNC(=O)c2cccc(OCC(=O)NCCNC(=O)CCCC[C@@H]3SC[C@@H]4NC(=O)N[C@@H]43)c2)O[C@H](CO)[C@@H](O[C@@H]2O[C@H](CO)[C@H](O)[C@H](O[C@H]3O[C@H](CO)[C@H](O)[C@H](O)[C@H]3O)[C@H]2O)[C@@H]1O [Example 4, N-(3-(((2R,3R,4R,5S,6R)-3-Acetamido-5-(((2S,3R,4S,5S,6R)-3,5-dihydroxy-6-(hydroxymethyl)-4-(((2R,3R,4S,5R,6R)-3,4,5-trihydroxy-6-(hydroxymethyl)tetrahydro-2H-pyran-2-yl)oxy)tetrahydro-2H-pyran-2-yl)oxy)-4-hydroxy-6-(hydroxymethyl)tetrahydro-2H-pyran-2-yl)oxy)propyl)-3-(2-oxo-2-((2-(5-((3aS,4S,6aR)-2-oxohexahydro-1H-thieno[3,4-d]imidazol-4-yl)pentanamido)ethyl)amino)ethoxy)benzamide]"
11,0.0101,CC(=O)N[C@H]1[C@H](OCCCNC(=O)COc2cc(OCC(=O)NCCCO[C@@H]3O[C@H](CO)[C@@H](O[C@@H]4O[C@H](CO)[C@H](O)[C@H](O[C@H]5O[C@H](CO)[C@H](O)[C@H](O)[C@H]5O)[C@H]4O)[C@H](O)[C@H]3NC(C)=O)cc(-c3cc(C(=O)NCCNC(=O)CCCC[C@@H]4SC[C@@H]5NC(=O)N[C@@H]54)c(OCC(=O)NCCCO[C@@H]4O[C@H](CO)[C@@H](O[C@@H]5O[C@H](CO)[C@H](O)[C@H](O[C@H]6O[C@H](CO)[C@H](O)[C@H](O)[C@H]6O)[C@H]5O)[C@H](O)[C@H]4NC(C)=O)cc3OCC(=O)NCCCO[C@@H]3O[C@H](CO)[C@@H](O[C@@H]4O[C@H](CO)[C@H](O)[C@H](O[C@H]5O[C@H](CO)[C@H](O)[C@H](O)[C@H]5O)[C@H]4O)[C@H](O)[C@H]3NC(C)=O)c2)O[C@H](CO)[C@@H](O[C@@H]2O[C@H](CO)[C@H](O)[C@H](O[C@H]3O[C@H](CO)[C@H](O)[C@H](O)[C@H]3O)[C@H]2O)[C@@H]1O [Example 9]

# From patent US10953100B2, “Compounds and therapeutic uses thereof” (priority 2015, dated 2021)
